Consider one compound from ChEMBL document CHEMBL1146422, “Isolation and structure of the human cancer cell growth inhibitory cyclodepsipeptide dolastatin 16” (1997).

Structures are written as SMILES. In brackets after ≈: the same amount, converted by molar mass. *1 amine or outer side, *2 acyl side, *3 side chain or, on linkers, in order; H or OH if unused. Where a SMILES comes first, the peptide text is derived from it. [ ]: non-standard residue; d: D form. X1 = CC(Cc1ccccc1)C(N[*:1])C(=O)[*:2]; X2 = CC(C)C(N[*:1])C(C)C(=O)[*:2]; dNMeV = CN[C@@H](C(=O)O)C(C)C; dHiv = CC(C)[C@@H](O)C(=O)O; Lac = C[C@H](O)C(=O)O

What all share (assay type): functional
In experiment [1] the test system is KM-20L2. Put plainly: Growth inhibition of human KM20L2 cells.
In experiment [2] the test system is MCF7. Put plainly: Growth inhibition of human MCF7 cells.
For experiment [3], the system named is MDA-MB-435. Put plainly: Growth inhibition of human MDA-MB-435 cells.
The subject of experiment [4] is MDA-N. The experiment in a line: Growth inhibition of human MDA-N cells.
The subject of experiment [5] is NCI-H460. The experiment in a line: Growth inhibition of human NCI-H460 cells.
The subject of experiment [6] is SF-295. The experiment in a line: Growth inhibition of human SF295 cells.
Experiment [7] relates to SK-MEL-5. Put plainly: Growth inhibition of human SK-MEL-5 cells.

The term GI50 denotes the concentration giving 50% growth inhibition. A high value points to less potent growth inhibition. For the compound `CC(C)C1NC(=O)[C@@H]2CCCN2C(=O)C(C(C)Cc2ccccc2)NC(=O)[C@@H]2CCCN2C(=O)[C@@H](C(C)C)N(C)C(=O)[C@@H](C(C)C)OC(=O)[C@@H]2CCCN2C(=O)[C@H](C)OC(=O)C1C` (some centres not stated) [DOLASTATIN 16] (cyclo([Lac]P[dHiv][dNMeV]P[X1]P[X2])), the GI50 was 1.2 ng/mL (≈ 1.37 nM) in experiment [1]; 47.9 nM in experiment [2]; 34.7 nM in experiment [3]; 28.8 nM in experiment [4]; 0.96 ng/mL (≈ 1.09 nM) in experiment [5]; 5.2 ng/mL (≈ 5.92 nM) in experiment [6]. Further, in experiment [7], the GI50 is 3.3 ng/mL (≈ 3.75 nM).
